Assay results published in ChEMBL document CHEMBL1201862, “PubChem BioAssay data set” (2004).
Calls of active or inactive are those of the source. Rule as the data show it, for most assays here: actives have a measured EC50 and inactives only a lower limit.

Legend:
[1] = cytotoxicity toward NIH3T3 fibroblasts, dose response, counter-screen, cell-based, ATP luminescence, mouse fibroblasts (AID 2010); type: functional;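 also: cells exposed to compound for about 90 hours before reading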
[2] = inhibitors of intracellular T. cruzi replication, confirmation, NIH3T3 host cells, beta-gal luminescence (AID 2044); type: functional, cell-based;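 also: intracellular parasites grown in NIH/3T3 mouse fibroblasts as host cells; luminescent beta-galactosidase reporter signal from transgenic T. cruzi replicating inside host cells; inhibitors lower the luminescence signal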
Cytochrome P450 1A2 = target: T1, Cytochrome P450 1A2 (Homo sapiens, UniProt P05177);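 also: PubChem cytochrome P450 panel assay, CYP1A2 panel member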
T1 sequence (P05177 whole entry): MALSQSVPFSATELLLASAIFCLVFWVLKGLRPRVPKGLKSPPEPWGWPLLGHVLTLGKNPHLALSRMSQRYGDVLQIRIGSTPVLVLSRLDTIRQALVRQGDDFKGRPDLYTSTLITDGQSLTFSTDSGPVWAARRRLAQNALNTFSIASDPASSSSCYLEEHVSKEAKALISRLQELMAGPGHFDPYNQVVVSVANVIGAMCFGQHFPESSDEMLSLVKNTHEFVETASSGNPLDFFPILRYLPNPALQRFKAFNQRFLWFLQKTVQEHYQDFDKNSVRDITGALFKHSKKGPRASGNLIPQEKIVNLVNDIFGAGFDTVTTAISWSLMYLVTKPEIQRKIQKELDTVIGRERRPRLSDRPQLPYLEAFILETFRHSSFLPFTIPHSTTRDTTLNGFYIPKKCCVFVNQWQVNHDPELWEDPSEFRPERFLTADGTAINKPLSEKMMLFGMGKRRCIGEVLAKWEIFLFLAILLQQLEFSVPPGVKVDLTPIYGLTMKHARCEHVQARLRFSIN

[3] = tested on: Streptococcus sp. 'group A'; experiment: growth inhibition of control SK(-) GAS strain, dose response, counter-screen for streptokinase expression inhibitor project, luminescence, kanamycin, BacTiterGlo, confirmation (AID 1900); type: functional, organism-based
Streptococcus = experiment: Group A Streptococcus viability loss, dose response, counter-screen for streptokinase expression inhibitor project, luminescence, BacTiterGlo (AID 1915); type: functional, organism-based;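 also: potency for reduction of bacterial viability or growth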
Streptokinase A = target: T2, Streptokinase A (Streptococcus pyogenes serotype M1, UniProt P10520); experiment: S. pyogenes streptokinase expression inhibitors, potency, dose response, plasminogen activation absorbance, OD405 (AID 1914); type: functional, Streptococcus pyogenes M1 GAS;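 also: secreted streptokinase activity via plasminogen activation per viability signal from cell pellet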
T2 sequence (P10520 whole entry): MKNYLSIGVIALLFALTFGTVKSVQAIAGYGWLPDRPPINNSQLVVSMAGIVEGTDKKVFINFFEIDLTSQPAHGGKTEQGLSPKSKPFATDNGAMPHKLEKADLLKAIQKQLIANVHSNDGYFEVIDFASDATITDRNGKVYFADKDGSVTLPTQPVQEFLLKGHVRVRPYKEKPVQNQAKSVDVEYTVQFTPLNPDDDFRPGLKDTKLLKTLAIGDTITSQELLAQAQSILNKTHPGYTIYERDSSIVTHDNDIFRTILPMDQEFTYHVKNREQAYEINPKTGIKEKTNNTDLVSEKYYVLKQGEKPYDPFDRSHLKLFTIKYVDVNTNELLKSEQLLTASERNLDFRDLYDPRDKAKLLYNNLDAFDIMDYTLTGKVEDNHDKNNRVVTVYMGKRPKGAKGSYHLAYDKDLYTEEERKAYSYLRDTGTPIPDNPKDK

[4] = HEp-2 cell cytotoxicity, dose response, cytotoxicity control for RSV inhibitor project, HTS (AID 2410); type: functional; details: human respiratory syncytial virus
INS1 = experiment: beta cell apoptosis inhibitors, cytokine rescue, dose response, luminescence, retest (AID 449756); type: functional, cell-based; details: Rattus norvegicus;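 also: cell death triggered by IL-1 beta plus TNF-alpha plus IFN-gamma mixture; protective hits raise ATP signal compared with cytokine alone wells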

What does the source list for `CCOc1ccccc1OCCOCCN1CCN(Cc2ccccc2)CC1`?
EC50 [1]: > 60 µM (not active); EC50 [2]: 0.633 µM (active)

What does the source list for `COc1ccc(C(=O)CC(Nc2ccc([N+](=O)[O-])cc2)c2ccc(Cl)cc2)cc1` (configuration not stated)?
EC50 [1]: > 60 µM (not active); EC50 [2]: 2.27 µM (active)

For `Cc1ccc(C2NC(c3ccc(C)cc3)C(C)C(=NO)C2C)cc1` (configuration not stated), which AC50 (Cytochrome P450 1A2) is on record?
Its AC50 is 15.8 µM (inconclusive).

Which AC50 (Cytochrome P450 1A2) does the source give for `CCOC(=O)c1[nH]c(C)c(C(=O)OCC(=O)N2c3ccccc3CC2C)c1C` (configuration not stated) here?
Its AC50 is 12.6 µM (inconclusive).

For `O=C(C1=C(O)C(=O)N(Cc2ccco2)C1c1cccc(Cl)c1)c1ccco1` (configuration not stated), which EC50 [3] is on record?
The EC50 was 22.7 µM (active).

What about the EC50 (Streptococcus) of the same compound?
Its EC50 is > 150 µM (not active).

What about the EC50 (Streptokinase A) of the same compound?
Its EC50 is > 150 µM (not active).

For `CCCNC(=O)CCc1c(C)nc2c(c(C)nn2-c2ccc(C)cc2)c1C`, which EC50 [1] is on record?
The EC50 was > 60 µM (not active).

And the EC50 [2]?
Its EC50 is 1.8 µM (active).

For `COc1ccccc1NC(=O)Nc1nc(CC(=O)N2CCN(c3ccccc3OC)CC2)cs1`, which CC50 [4] is on record?
The CC50 was 15.2 µM (active).

Which AC50 (INS1) does the source give for `CC(=O)Nc1ccc(S(=O)(=O)N2c3ccccc3NC(=O)CC2C)c(Cl)c1` (configuration not stated) here?
The AC50 was > 260 µM (inactive).

With `CC1CCN(C(=O)CCNS(=O)(=O)c2ccc(Br)cc2)CC1` as the compound, how does the AC50 (INS1) read?
The AC50 was > 260 µM (inactive).

For `Cc1csc2ncnc(N3CCN(S(=O)(=O)c4cccc(C(F)(F)F)c4)CC3)c12`, which AC50 (INS1) is on record?
Its AC50 is 3.86 µM (active).

With `Clc1cccc(-c2cc3nc4c(c(N5CCN(c6cnccn6)CC5)n3n2)CCCC4)c1` as the compound, how does the CC50 [4] read?
The CC50 was 35.2 µM (active).

With `CC(C)c1nc(-c2ccccc2)c(-c2ccccc2)[nH]1` as the compound, how does the AC50 (INS1) read?
The AC50 was 7.08 µM (active).

With `O=C(CCN1CCN(C/C=C/c2ccccc2)CC1)Nc1cccc(F)c1` as the compound, how does the EC50 [1] read?
The EC50 was 21.9 µM (active).

What about the EC50 [2] of the same compound?
The EC50 was 0.383 µM (active).

Which EC50 [3] does the source give for `COc1ccc2c(c1)c(CC(=O)NCc1cc([N+](=O)[O-])ccc1O)c(C)n2C(=O)c1ccc(Cl)cc1` here?
The EC50 was 19.1 µM (active).

And the EC50 (Streptococcus)?
The EC50 was > 150 µM (not active).

What about the EC50 (Streptokinase A) of the same compound?
The EC50 was 20.2 µM (active).

Which EC50 [1] does the source give for `CCOc1ccccc1CN1CCCC(CNC(=O)Cc2ccc(OC)cc2)C1` (configuration not stated) here?
Its EC50 is > 60 µM (not active).

What about the EC50 [2] of the same compound?
The EC50 was 1.33 µM (active).

For `CCCCc1nc2cc(C(=O)N3CCC(OCCOC)CC3)ccc2o1`, which EC50 [3] is on record?
The EC50 was > 150 µM (not active).

And the EC50 (Streptococcus)?
The EC50 was > 150 µM (not active).

And the EC50 (Streptokinase A)?
The EC50 was > 150 µM (not active).

For `CCCCN(CC)CCNC(=O)c1cn(-c2ccc(Cl)cc2)c(=O)c2ccccc12`, which EC50 [1] is on record?
The EC50 was > 60 µM (inconclusive).

And the EC50 [2]?
The EC50 was 0.896 µM (active).

For `Nc1nc(Nc2ccccc2)nc2c1ncn2[C@@H]1O[C@@H](CO)[C@H](O)[C@H]1O`, which AC50 (Cytochrome P450 1A2) is on record?
Its AC50 is 39.8 µM (inconclusive).

For `CCCCCn1c(=O)c(C(=O)Nc2ncccc2C)c(O)c2ccccc21`, which AC50 (INS1) is on record?
The AC50 was 10.4 µM (active).

Which results are given for `COc1ccc(N2CCN(C(CNS(=O)(=O)c3cc(F)ccc3F)c3cccnc3)CC2)cc1` (configuration not stated)?
EC50 [1]: > 60 µM (not active); EC50 [2]: 0.206 µM (active)

What does the source list for `CCOC(=O)c1ccc(Oc2c[nH]nc2-c2ccc(OCC(=O)NN)cc2O)cc1`?
EC50 [3]: > 150 µM (not active); EC50 (Streptococcus): > 150 µM (not active); EC50 (Streptokinase A): > 150 µM (not active)

For `COc1cccc(C(=O)Nc2cccc(-c3nnc(-c4ccccc4)o3)c2)c1`, which EC50 [3] is on record?
The EC50 was 23.2 µM (active).

And the EC50 (Streptococcus)?
Its EC50 is 57.9 µM (active).

And the EC50 (Streptokinase A)?
The EC50 was > 150 µM (not active).

Which AC50 (INS1) does the source give for `CCOC(=O)c1cnc2ccc(OCC)cc2c1N1CCN(c2ccccc2)CC1` here?
The AC50 was 14.9 µM (active).

For `N#CCCn1c(=O)c(-c2ccc(Cl)cc2)nc2cnc(Oc3ccccc3)nc21`, which AC50 (Cytochrome P450 1A2) is on record?
Its AC50 is 0.501 µM (inconclusive).

Which EC50 [1] does the source give for `Cc1cc(C)nc(SCC(=O)NC2=NN=C(c3ccc(Br)cc3)CS2)n1` here?
The EC50 was > 60 µM (inconclusive).

And the EC50 [3]?
The EC50 was 2.6 µM (active).

And the EC50 (Streptococcus)?
Its EC50 is 3.62 µM (active).

And the AC50 (INS1)?
The AC50 was 4.78 µM (active).

And the EC50 (Streptokinase A)?
The EC50 was > 150 µM (not active).

And the EC50 [2]?
The EC50 was 1.65 µM (active).

With `COC(=O)[C@@]1(Cc2ccc(OC)cc2)[C@H]2c3cc(C(=O)N(C)C)[nH]c3C[C@H]2CN1C(=O)c1ccccc1` as the compound, how does the AC50 (Cytochrome P450 1A2) read?
The AC50 was 20 µM (inconclusive).

With `COCCNC(=O)COc1ccc(Oc2ccccc2)cc1` as the compound, how does the AC50 (Cytochrome P450 1A2) read?
The AC50 was 25.1 µM (inconclusive).

With `COc1ccc(CCn2c(-c3cc([N+](=O)[O-])cc([N+](=O)[O-])c3)nc3nc4ccccc4nc32)cc1OC` as the compound, how does the EC50 [1] read?
Its EC50 is > 60 µM (not active).

And the EC50 [2]?
The EC50 was 0.105 µM (active).

With `CCOCC(=O)Nc1ccc([N+](=O)[O-])cc1OC` as the compound, how does the CC50 [4] read?
Its CC50 is > 50 µM (active).
